# Several values for one entry are separate records, joined by “and”; a condition that tells them apart may be missing. Equal values may be shown once.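 Where inhibition never reached the appropriate level, the endpoint shown equals the highest concentration tested. Otherwise, values were interpolated linearly from a five-concentration, 48-hour dose response in 96-well plates. GI50 = concentration required for 50% inhibition of growth. TGI denotes the concentration required for complete inhibition of growth.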
# What was measured:
# Test in all cases: NCI-60 cell line screen, 48 h
# [1] = system: SN12C renal
# [2] = system: TK-10 renal
# [3] = system: RPMI-8226 leukemia
# [4] = system: SW-620 colon
# [5] = system: HCT-15 colon
# [6] = system: CAKI-1 renal
# [7] = system: 786-0 renal
# [8] = system: SF-539 CNS
# [9] = system: IGROV1 ovarian
# [10] = system: DU-145 prostate
Compound,GI50 [1] [µM],TGI [1],TGI [2] [µM],GI50 [3] [µM],TGI [3],GI50 [4] [µM],TGI [4],GI50 [5] [µM],TGI [5],GI50 [6],TGI [7] [µM],GI50 [8] [µM],TGI [8],GI50 [9] [µM],TGI [9],GI50 [2] [µM],GI50 [7] [µM],GI50 [10] [µM],TGI [10] [µM],TGI [6] [µM]
Cc1c2ccncc2c(C)c2c1[nH]c1ccc(Cl)cc12,1.41,10.1 µM and 7.46 µM,18.1,1.77,9.7 µM and 4.43 µM,1.04,9.35 µM and 2.6 µM,1.41,5.17 µM and 3.23 µM,0.602 µM and 5.24 µM,2.27,2.09,6.68 µM and 7.97 µM,3.88,13.7 µM and 21.1 µM,,,,,
O=C(Nc1nc2ccccc2s1)c1cc(-c2ccc(F)cc2)n2nc(-c3ccccc3)cc2n1,6.49,> 100 µM,5.54,5.59,> 100 µM,,,,,,5.1,,,4.36,> 100 µM,2.45,2.12,4.95,> 100,
CC(=O)NC(CCCN(Cc1ccccc1)C(=O)N(C)N=O)C(=O)NCc1ccccc1 (stereo unspecified),,> 100 µM,> 100,,> 100 µM,,> 100 µM,,> 100 µM,,> 100,,> 100 µM,,> 100 µM,,,,,> 100
Cc1ccc2nc(NC(=O)C(=O)CC(=O)c3cccc4ccccc34)sc2c1,,> 100 µM,44.6,,> 100 µM,,> 100 µM,,> 100 µM,,39.3,,61.6 µM,,> 100 µM,,,,,78
c1ccc(-c2ccnc3c2ccc2c(-c4ccccc4)ccnc23)cc1,,6.54 µM,0.994,,,,15 µM,,,,10.4,,5.62 µM,,18.2 µM,,,,,
Cc1cc(Br)cc(C)c1NC(=O)C(=O)Nn1c(=S)[nH]c2ccccc2c1=O,,> 100 µM,> 100,,> 100 µM,,> 100 µM,,> 100 µM,,> 100,,> 100 µM,,> 100 µM,,,,,> 100
O=C1C=Cc2ncccc2C1=O,,48.9 µM,> 58.8,,62.4 µM,,31.1 µM,,33.5 µM,,29.1,,40.5 µM,,> 58.3 µM,,,,,48.9
[CH3][Sn]1([CH3])[O]CC(COc2cc(Cl)c(Cl)cc2Cl)[O]1 (stereo unspecified),89.1,> 100 µM,> 100,> 100,> 100 µM,51,> 100 µM,> 100,> 100 µM,28.1 µM,> 100,24.7,> 100 µM,70.3,> 100 µM,> 100,> 100,,,89.3
COC(=O)C(C(=O)C(N)=O)c1csc(-n2nc(-c3ccccc3)cc2-c2ccccc2)n1 (stereo unspecified),,,> 31.6,,> 31.6 µM,,6.02 µM,,> 31.6 µM,,> 31.6,,> 31.6 µM,,> 31.6 µM,,,,,15.5
CSCCCNC(=O)[C@H](CSC)NC(=O)c1csc(CCNC(=O)[C@@H](NSc2ccccc2[N+](=O)[O-])C(C)O)n1 (stereo partly specified),,> 100 µM,> 100,,,,> 100 µM,,> 100 µM,,> 100,,> 100 µM,,> 100 µM,,,,> 100,> 100
NNC(=O)C(O)C(O)C(=O)NN (stereo unspecified),,> 100 µM,> 100,,> 100 µM,,> 100 µM,,> 100 µM,,> 100,,,,> 100 µM,,,,> 100,> 100
C/C(=N\NS(=O)(=O)c1ccc([N+](=O)[O-])cc1)c1ccc[n+]([O-])n1,,12 µM,25.9,,7.17 µM,,7.99 µM,,24.9 µM,,15.6,,4.94 µM,,20.9 µM,,,,,6.99
N#CC(C(=O)CCCC(=O)Nc1ccc(Cl)cc1Cl)c1ccc(Cl)cc1 (stereo unspecified),,> 100 µM,> 100,,> 100 µM,,> 100 µM,,> 100 µM,,> 100,,> 100 µM,,> 100 µM,,,,,> 100
Cn1nc(-c2ccccc2)c(C(=O)/C=C/c2ccc(Cl)cc2)c(N2CCCC2)c1=O,,54 µM,26.6,,7.84 µM,,21.9 µM,,> 100 µM,,13.5,,13.2 µM,,27.9 µM,,,,,22.2
COc1ccc2c(c1)/C(=N/OC(C)=O)c1c-2cnc2ccccc12,18.9,36.3 µM,54.8,22.3,81.5 µM,67.1,> 100 µM,34.9,> 100 µM,,33.2,41.9,> 100 µM,25.3,52 µM,20.4,17.8,36,> 100,
O=C(/C=C/C1C(=O)NC(=O)NC1=O)CC(=O)C(=O)Nc1cc(Cl)c(Cl)cc1Cl,,> 100 µM,> 100,,> 100 µM,,> 100 µM,,> 100 µM,,> 100,,> 100 µM,,> 100 µM,,,,,> 100
CC1=CC(=O)NP(=O)(C23CC4CC(CC(C4)C2)C3)N1 (stereo unspecified),,> 100 µM,> 100,,> 100 µM,,> 100 µM,,> 100 µM,,> 100,,> 100 µM,,> 100 µM,,,,,> 100
CC(C)[Si](OCC1CC(C#N)OC(C)(C)O1)(C(C)C)C(C)C (stereo unspecified),,> 100 µM,> 100,,33.8 µM,,36 µM,,79 µM,,35.2,,79 µM,,> 100 µM,,,,,69.5
O=C(/C=C/c1ccccc1)CCC1C(=O)NC(=S)NC1=O,,> 100 µM,,,,,> 100 µM,,> 100 µM,,> 100,,> 100 µM,,,,,,> 100,> 100
COc1ccc(NC(=O)C2C(=O)N(c3ccc(OC)cc3)C(=O)/C2=N\NC(N)=O)cc1 (stereo unspecified),,> 100 µM,70.9,,> 100 µM,,> 100 µM,,> 100 µM,,49.3,,30.8 µM,,45 µM,,,,,> 100
